Measured values from patent US6358885B1, “Substituted phenylheterocyclic herbicides” (Mississippi State University, priority 1992, dated 2002).

Experiments:
[1] = system: wild oat; assay: Test C preemergence/postemergence greenhouse plant response rating 0 to 100; format: in vivo, Avena fatua; conditions: POSTEMERGENCE; for Plant response rating, Wild oat: 0 to 100 scale
How it was run: (§1)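 Compounds in non-phytotoxic solvent applied preemergence to sandy loam one day after planting, postemergence at the 1–4 leaf stage, or to ~2.5 cm floodwater over silt loam.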

[2] = system: rape; assay: as above; format: in vivo, Brassica napus; conditions: POSTEMERGENCE; for Plant response rating, Rape: 0 to 100 scale
How it was run: as §1

[3] = system: giant foxtail; assay: as above; format: in vivo, Setaria faberii; conditions: POSTEMERGENCE; for Plant response rating, Giant foxtail: 0 to 100 scale
How it was run: as §1

[4] = system: wheat; assay: as above; format: in vivo, Triticum aestivum; conditions: POSTEMERGENCE; for Plant response rating, Wheat: 0 to 100 scale
How it was run: as §1

[5] = system: morningglory; assay: Test B preemergence/postemergence greenhouse plant response rating 0 to 10; format: in vivo, Ipomoea hederacea; conditions: 0 to 10 scale
How it was run: (§2)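 Test chemicals were sprayed onto freshly planted seed and, concurrently, onto young plants between the one and four leaf stage. After a twelve- to sixteen-day greenhouse period, each species was visually compared with untreated controls.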

[6] = system: bedstraw; assay: Test C preemergence/postemergence greenhouse plant response rating 0 to 100; format: in vivo, Galium aparine; conditions: POSTEMERGENCE; for Plant response rating, Bedstraw: 0 to 100 scale
How it was run: as §1

[7] = system: wheat; assay: Test B preemergence/postemergence greenhouse plant response rating 0 to 10; format: in vivo, Triticum aestivum; conditions: 0 to 10 scale
How it was run: as §2

[8] = system: blackgrass; assay: Test C preemergence/postemergence greenhouse plant response rating 0 to 100; format: in vivo, Alopecurus myosuroides; conditions: POSTEMERGENCE; for Plant response rating, Blackgrass: 0 to 100 scale
How it was run: as §1

[9] = system: cotton; assay: Test B preemergence/postemergence greenhouse plant response rating 0 to 10; format: in vivo, Gossypium hirsutum; conditions: 0 to 10 scale
How it was run: as §2

[10] = system: velvetleaf; assay: as above; format: in vivo, Abutilon theophrasti; conditions: 0 to 10 scale
How it was run: as §2

[11] = system: barnyardgrass; assay: as above; format: in vivo, Echinochloa crus-galli; conditions: 0 to 10 scale
How it was run: as §2

[12] = system: speedwell; assay: Test C preemergence/postemergence greenhouse plant response rating 0 to 100; format: in vivo, Veronica persica; conditions: POSTEMERGENCE; for Plant response rating Speedwell: 0 to 100 scale
Excerpt: The compounds evaluated in this test were formulated in a non-phytoxic solvent and applied to the soil surface before plant seedlings emerged (preemergence application), to water that covered the soil surface (flood application), and to plants that were in the one-to-four leaf stage (postemergence application). A sandy loam soil was used for the preemergence and postemergence tests, while a silt loam soil was used in the flood test. Water depth was approximately 2.5 cm for the flood test and was maintained at this level for the duration of the test. Plant species in the preemergence and postemergence tests consisted of barley (Hordeum vulgare), bedstraw (Galium aparine), blackgrass (Alopecurus myosuroides), chickweed (Stellaria media), corn (Zea mays), cotton (Gossypium hirsutum), crabgrass (Digitaria sanguinalis), downy brome (Bromus tectorum), giant foxtail (Setaria faberii), lambsquarters (Chenopodium album), morningglory (Ipomoea hederacea), pigweed ([…]), rape (Brassica napus), ryegrass (Lolium multiflorum), sorghum (Sorghum bicolor), soybean (Glycine max), speedwell (Veronica persica), sugar beet (Beta vulgaris), velvetleaf (Abutilon theophrasti), wheat (Triticum aestivum), wild buckwheat (Polygonum convolvulus), and wild oat (Avena fatua). All plant species were planted one day before application of the compound for the preemergence portion-of this test. Plantings of these species were adjusted to produce plants of appropriate size for the post-emergence portion of the test. […] All plant species were grown using normal greenhouse practices. Visual evaluations of injury expressed on treated plants, when compared to untreated controls, were recorded approximately fourteen to twenty one days after application of the test compound. […] A dash (-) response means no test result.

[13] = system: crabgrass; assay: as above; format: in vivo, Digitaria sanguinalis; conditions: POSTEMERGENCE; for Plant response rating, Crabgrass: 0 to 100 scale
How it was run: as §1

## CCOC(=O)COc1cc(-c2nn3c(c2Cl)CCCC3)c(F)cc1Cl [Compound 42]
[1]; 62 g/ha
  Plant response rating, Wild oat: 30
[1]; 125 g/ha
  Plant response rating, Wild oat: 30
[1]; Rate 16 g/ha
  Plant response rating (0 to 100), Wild oat: 10
[1]; Rate 31 g/ha
  Plant response rating (0 to 100), Wild oat: 10
[2]; 62 g/ha
  Plant response rating, Rape: 95
[2]; 125 g/ha
  Plant response rating, Rape: 100
[2]; Rate 16 g/ha
  Plant response rating (0 to 100), Rape: 50
[2]; Rate 31 g/ha
  Plant response rating (0 to 100), Rape: 70
[3]; 62 g/ha
  Plant response rating, Giant foxtail: 50
[3]; 125 g/ha
  Plant response rating, Giant foxtail: 70
[3]; Rate 16 g/ha
  Plant response rating (0 to 100), Giant foxtail: 30
[3]; Rate 31 g/ha
  Plant response rating (0 to 100), Giant foxtail: 30
[4]; 62 g/ha
  Plant response rating, Wheat: 30
[4]; 125 g/ha
  Plant response rating, Wheat: 40
[4]; Rate 16 g/ha
  Plant response rating (0 to 100), Wheat: 10
[4]; Rate 31 g/ha
  Plant response rating (0 to 100), Wheat: 20
[5]; POSTEMERGENCE, Rate 50 g/ha
  Plant response rating, Morningglory: 9
[5]; PREEMERGENCE, Rate 50 g/ha
  Plant response rating, Morningglory: 0
[5]; Rate 200 g/ha, POSTEMERGENCE
  Plant response rating, Morningglory: 10
[5]; Rate 200 g/ha, PREEMERGENCE
  Plant response rating, Morningglory: 3
[6]; 62 g/ha
  Plant response rating, Bedstraw: 100
[6]; 125 g/ha
  Plant response rating, Bedstraw: 100
[6]; Rate 16 g/ha
  Plant response rating (0 to 100), Bedstraw: 80
[6]; Rate 31 g/ha
  Plant response rating (0 to 100), Bedstraw: 90
[7]; POSTEMERGENCE, Rate 50 g/ha
  Plant response rating, Wheat: 2
[7]; PREEMERGENCE, Rate 50 g/ha
  Plant response rating, Wheat: 0
[7]; Rate 200 g/ha, POSTEMERGENCE
  Plant response rating, Wheat: 5
[7]; Rate 200 g/ha, PREEMERGENCE
  Plant response rating, Wheat: 0
[8]; 62 g/ha
  Plant response rating, Blackgrass: 30
[8]; 125 g/ha
  Plant response rating, Blackgrass: 30
[8]; Rate 16 g/ha
  Plant response rating (0 to 100), Blackgrass: 10
[8]; Rate 31 g/ha
  Plant response rating (0 to 100), Blackgrass: 20
[9]; POSTEMERGENCE, Rate 50 g/ha
  Plant response rating, Cotton: 10
[9]; POSTEMERGENCE, Rate 200 g/ha
  Plant response rating, Cotton: 10
[9]; PREEMERGENCE, Rate 50 g/ha
  Plant response rating, Cotton: 0
[9]; Rate 200 g/ha, PREEMERGENCE
  Plant response rating, Cotton: 0
[10]; POSTEMERGENCE, Rate 50 g/ha
  Plant response rating, Velvetleaf: 10
[10]; PREEMERGENCE, Rate 50 g/ha
  Plant response rating, Velvetleaf: 0
[10]; Rate 200 g/ha, POSTEMERGENCE
  Plant response rating, Velvetleaf: 10
[10]; Rate 200 g/ha, PREEMERGENCE
  Plant response rating, Velvetleaf: 6
[11]; POSTEMERGENCE, Rate 50 g/ha
  Plant response rating, Barnyardgrass: 5
[11]; POSTEMERGENCE, Rate 200 g/ha
  Plant response rating, Barnyardgrass: 8
[11]; PREEMERGENCE, Rate 50 g/ha
  Plant response rating, Barnyardgrass: 0
[11]; Rate 200 g/ha, PREEMERGENCE
  Plant response rating, Barnyardgrass: 0
[12]; 62 g/ha
  Plant response rating Speedwell: 100
[12]; 125 g/ha
  Plant response rating Speedwell: 100
[12]; Rate 16 g/ha
  Plant response rating (0 to 100), Speedwell: 95
[12]; Rate 31 g/ha
  Plant response rating (0 to 100), Speedwell: 100
[13]; 62 g/ha
  Plant response rating, Crabgrass: 10
[13]; 125 g/ha
  Plant response rating, Crabgrass: 40
[13]; Rate 16 g/ha
  Plant response rating (0 to 100), Crabgrass: 10
[13]; Rate 31 g/ha
  Plant response rating (0 to 100), Crabgrass: 10

## Fc1cc(Cl)c(OCCCl)cc1-c1nn2c(c1Cl)CCCC2 [Compound 49]
[1]; 62 g/ha
  Plant response rating, Wild oat: 50
[1]; 250 g/ha
  Plant response rating, Wild oat: 60
[1]; Rate 4 g/ha
  Plant response rating (0 to 100), Wild oat: 20
[1]; Rate 16 g/ha
  Plant response rating (0 to 100), Wild oat: 40
[2]; 62 g/ha
  Plant response rating, Rape: 70
[2]; 250 g/ha
  Plant response rating, Rape: 100
[2]; Rate 4 g/ha
  Plant response rating (0 to 100), Rape: 50
[2]; Rate 16 g/ha
  Plant response rating (0 to 100), Rape: 60
[3]; 62 g/ha
  Plant response rating, Giant foxtail: 50
[3]; 250 g/ha
  Plant response rating, Giant foxtail: 60
[3]; Rate 4 g/ha
  Plant response rating (0 to 100), Giant foxtail: 30
[3]; Rate 16 g/ha
  Plant response rating (0 to 100), Giant foxtail: 40
[4]; 62 g/ha
  Plant response rating, Wheat: 50
[4]; 250 g/ha
  Plant response rating, Wheat: 70
[4]; Rate 4 g/ha
  Plant response rating (0 to 100), Wheat: 10
[4]; Rate 16 g/ha
  Plant response rating (0 to 100), Wheat: 20
[5]; POSTEMERGENCE, Rate 50 g/ha
  Plant response rating, Morningglory: 10
[5]; PREEMERGENCE, Rate 50 g/ha
  Plant response rating, Morningglory: 1
[5]; Rate 200 g/ha, POSTEMERGENCE
  Plant response rating, Morningglory: 10
[5]; Rate 200 g/ha, PREEMERGENCE
  Plant response rating, Morningglory: 6
[6]; 62 g/ha
  Plant response rating, Bedstraw: 70
[6]; 250 g/ha
  Plant response rating, Bedstraw: 100
[6]; Rate 4 g/ha
  Plant response rating (0 to 100), Bedstraw: 20
[6]; Rate 16 g/ha
  Plant response rating (0 to 100), Bedstraw: 50
[7]; POSTEMERGENCE, Rate 50 g/ha
  Plant response rating, Wheat: 5
[7]; PREEMERGENCE, Rate 50 g/ha
  Plant response rating, Wheat: 0
[7]; Rate 200 g/ha, POSTEMERGENCE
  Plant response rating, Wheat: 4
[7]; Rate 200 g/ha, PREEMERGENCE
  Plant response rating, Wheat: 2
[8]; 62 g/ha
  Plant response rating, Blackgrass: 50
[8]; 250 g/ha
  Plant response rating, Blackgrass: 70
[8]; Rate 4 g/ha
  Plant response rating (0 to 100), Blackgrass: 10
[8]; Rate 16 g/ha
  Plant response rating (0 to 100), Blackgrass: 40
[9]; POSTEMERGENCE, Rate 50 g/ha
  Plant response rating, Cotton: 10
[9]; POSTEMERGENCE, Rate 200 g/ha
  Plant response rating, Cotton: 10
[9]; PREEMERGENCE, Rate 50 g/ha
  Plant response rating, Cotton: 2
[9]; Rate 200 g/ha, PREEMERGENCE
  Plant response rating, Cotton: 2
[10]; POSTEMERGENCE, Rate 50 g/ha
  Plant response rating, Velvetleaf: 9
[10]; PREEMERGENCE, Rate 50 g/ha
  Plant response rating, Velvetleaf: 0
[10]; Rate 200 g/ha, POSTEMERGENCE
  Plant response rating, Velvetleaf: 10
[10]; Rate 200 g/ha, PREEMERGENCE
  Plant response rating, Velvetleaf: 1
[11]; POSTEMERGENCE, Rate 50 g/ha
  Plant response rating, Barnyardgrass: 3
[11]; POSTEMERGENCE, Rate 200 g/ha
  Plant response rating, Barnyardgrass: 7
[11]; PREEMERGENCE, Rate 50 g/ha
  Plant response rating, Barnyardgrass: 0
[11]; Rate 200 g/ha, PREEMERGENCE
  Plant response rating, Barnyardgrass: 5
[12]; 62 g/ha
  Plant response rating Speedwell: 100
[12]; 250 g/ha
  Plant response rating Speedwell: 100
[12]; Rate 4 g/ha
  Plant response rating (0 to 100), Speedwell: 85
[12]; Rate 16 g/ha
  Plant response rating (0 to 100), Speedwell: 100
[13]; 62 g/ha
  Plant response rating, Crabgrass: 20
[13]; 250 g/ha
  Plant response rating, Crabgrass: 40
[13]; Rate 4 g/ha
  Plant response rating (0 to 100), Crabgrass: 10
[13]; Rate 16 g/ha
  Plant response rating (0 to 100), Crabgrass: 10
